In article doi:10.1101/2025.07.02.662867v1 (bioRxiv, 2025):

Columns and labels:
[1] = typical dose of 0.5 to 1 mg; cited from earlier work
[2] = 24-hour IV pharmacokinetic study in T2D rat model; design: species or system STZ/NA diabetic); settings: male, Sprague Dawley, in vivo
[3] = tested on: type 2-like diabetic male rats; experiment: Blood glucose and body weight over 6 weeks in diabetic rats; type: in vivo, rat (male Sprague Dawley, STZ/NA diabetic); settings: hydrogel vs daily bolus

Row | Compound | half-life in humans [1] | half-life [2] | body weight outcome [3]
1 | CC[C@H](C)[C@H](NC(=O)[C@H](Cc1ccccc1)NC(=O)[C@H](CCC(=O)O)NC(=O)[C@H](CCCCNC(=O)COCCOCCNC(=O)COCCOCCNC(=O)CC[C@H](NC(=O)CCCCCCCCCCCCCCCCC(=O)O)C(=O)O)NC(=O)[C@H](C)NC(=O)[C@H](C)NC(=O)[C@H](CCC(N)=O)NC(=O)CNC(=O)[C@H](CCC(=O)O)NC(=O)[C@H](CC(C)C)NC(=O)[C@H](Cc1ccc(O)cc1)NC(=O)[C@H](CO)NC(=O)[C@H](CO)NC(=O)[C@@H](NC(=O)[C@H](CC(=O)O)NC(=O)[C@H](CO)NC(=O)[C@@H](NC(=O)[C@H](Cc1ccccc1)NC(=O)[C@@H](NC(=O)CNC(=O)[C@H](CCC(=O)O)NC(=O)C(C)(C)NC(=O)[C@@H](N)Cc1cnc[nH]1)[C@@H](C)O)[C@@H](C)O)C(C)C)C(=O)N[C@@H](C)C(=O)N[C@@H](Cc1c[nH]c2ccccc12)C(=O)N[C@@H](CC(C)C)C(=O)N[C@H](C(=O)N[C@@H](CCCNC(=N)N)C(=O)NCC(=O)N[C@@H](CCCNC(=N)N)C(=O)NCC(=O)O)C(C)C [Sema, semaglutide] | 170 h |  | 
2 | CC[C@H](C)[C@H](NC(=O)[C@H](CC(C)C)NC(=O)[C@H](Cc1c[nH]c2ccccc12)NC(=O)[C@H](CCC(N)=O)NC(=O)[C@@H](NC(=O)[C@H](Cc1ccccc1)NC(=O)[C@H](C)NC(=O)[C@H](CCCCNC(=O)COCCOCCNC(=O)COCCOCCNC(=O)CC[C@H](NC(=O)CCCCCCCCCCCCCCCCCCC(=O)O)C(=O)O)NC(=O)[C@H](CCC(N)=O)NC(=O)[C@H](C)NC(=O)[C@@H](NC(=O)[C@H](CCCCN)NC(=O)[C@H](CC(=O)O)NC(=O)[C@H](CC(C)C)NC(=O)C(C)(C)NC(=O)[C@@H](NC(=O)[C@H](CO)NC(=O)[C@H](Cc1ccc(O)cc1)NC(=O)[C@H](CC(=O)O)NC(=O)[C@H](CO)NC(=O)[C@@H](NC(=O)[C@H](Cc1ccccc1)NC(=O)[C@@H](NC(=O)CNC(=O)[C@H](CCC(=O)O)NC(=O)C(C)(C)NC(=O)[C@@H](N)Cc1ccc(O)cc1)[C@@H](C)O)[C@@H](C)O)[C@@H](C)CC)[C@@H](C)CC)C(C)C)C(=O)N[C@@H](C)C(=O)NCC(=O)NCC(=O)N1CCC[C@H]1C(=O)N[C@@H](CO)C(=O)N[C@@H](CO)C(=O)NCC(=O)N[C@@H](C)C(=O)N1CCC[C@H]1C(=O)N1CCC[C@H]1C(=O)N1CCC[C@H]1C(=O)N[C@@H](CO)C(N)=O [TZP, tirzepatide] |  | 3.87 ± 0.63 h | noticeable weight loss in some animals
